Measured values as given in US20240408077A1, “ATM KINASE INHIBITORS FOR USE IN THE TREATMENT OF NEUROLOGICAL CONDITIONS” (The University of Birmingham, priority 2021, published 2024).
Like-named read-outs stand apart in the source and are kept apart here.

Assays:
[1] = molecular target: T1, phosphorylated ATM (pATM) (Rattus norvegicus, UniProt D4ACL8); assay: pATM levels in DRGN cultures, western blot and densitometry; assay type: cell-based
T1 construct: Total protein was extracted from DRGN cultures and fresh DRG tissues; endogenous in cells; host or cells: primary adult rat dorsal root ganglion neurons
Protocol: Primary adult rat DRGN cultures were prepared as described by us previously (11). DRGN were dissociated using collagenase and cultured in supplemented Neurobasal-A (#10888022; NBA) containing B27 supplement (#17504044), L-glutamine (#25030081) and gentamicin (#15710064) (all from Invitrogen, Paisley, UK) at a plating density of 500/well in 8-well chamber slides (#C6932; Beckton Dickinson, Oxford, UK) pre-coated with 100 μg/ml poly-D-lysine (#P6407; Sigma, Poole, UK). […] Sigma) at 30 μM (11). […] Positive controls included pre-optimized fibroblast growth factor-2 (FGF-2) (#100-18C, Peprotech, London, UK; 10 ng/ml (11)). Cells were cultured for 4 days in a humidified chamber at 37° C. and 5% CO2 before being subjected to immunocytochemistry, as described below. Treatments were added in triplicate and repeated on 3 independent occasions (i.e. total n=9 wells/treatment) by an investigator masked to the treatment conditions. […] Tocris, Oxford, UK) were dissolved in DMSO (Sigma, Poole, UK) at stock concentrations of 10 mM for in vitro use. […] After a protein assay using the Bradford Assay Kit (#5000001; […] Proteins were then transferred onto PVDF membranes (#1EVH00005, Merck, Gillingham, UK), blocked in non-fat milk and incubated with rabbit anti-pATM ([…]) antibody (#13050, 1:200 dilution, Cell Signalling Technology, London, UK) overnight at 4° C. Membranes were then washed in Tris buffered saline (TBS) and incubated with appropriate mouse/rabbit HRP-labelled secondary antibody (#GENA934; 1:1000 dilution, GE Healthcare, Buckinghamshire, UK) and bands detected using an enhanced chemiluminescence kit (#RPN2108, GE Healthcare). Rabbit anti-β-actin antibody (#ZRB1312, 1:1000; Sigma) was used as a loading control for western blots. For densitometry, western blots were scanned into Adobe Photoshop (Adobe Systems, San Jose, CA, USA) keeping all scanning parameters the same between each blot and densitometrically analysed using the built-in gel plotting macros in ImageJ ([…].gov), as previously described (7).

primary adult rat DRGN = assay: DRGN survival and neurite outgrowth in the presence of CNS myelin extracts; assay type: cell-based; details: with CME
Protocol: Primary adult rat DRGN cultures were prepared as described by us previously (11). DRGN were dissociated using collagenase and cultured in supplemented Neurobasal-A (#10888022; NBA) containing B27 supplement (#17504044), L-glutamine (#25030081) and gentamicin (#15710064) (all from Invitrogen, Paisley, UK) at a plating density of 500/well in 8-well chamber slides (#C6932; Beckton Dickinson, Oxford, UK) pre-coated with 100 μg/ml poly-D-lysine (#P6407; Sigma, Poole, UK). Glial cell proliferation was inhibited in cultures using 5-fluoro-2-deoxyuridine (5-FDU; #343333; Sigma) at 30 μM (11). […] Positive controls included pre-optimized fibroblast growth factor-2 (FGF-2) (#100-18C, Peprotech, London, UK; 10 ng/ml (11)). Cells were cultured for 4 days in a humidified chamber at 37° C. and 5% CO2 before being subjected to immunocytochemistry, as described below. Treatments were added in triplicate and repeated on 3 independent occasions (i.e. total n=9 wells/treatment) by an investigator masked to the treatment conditions.
DRGN were fixed in 8-well chamber slides in situ using 4% paraformaldehyde before being subjected to immunocytochemistry with rabbit anti-βIII tubulin antibodies (#T3952; 1:200 dilution; Sigma) to detect DRGN soma and neurites, as described previously (11). Alexa-488 goat […] IgG (#A32723; 1:400 dilution; ThermoFisher, Leicester, UK) secondary antibodies were used to visualize DRGN soma and neurites using an Axioplan 2 epifluorescent microscope equipped with an AxioCam HRc and running Axiovision Software (all from Carl Zeiss, Hertfordshire, UK).
With the investigator masked to the treatment conditions, the proportion of βIII-tubulin^+ DRGN, the number of DRGN with neurites and the longest DRGN neurite length were all calculated using Axiovision Software, as described by us previously (11).

pATM (pSer 1981) = molecular target: T2, pATM (pSer 1981) (Mus musculus, UniProt Q62388); assay: pATM levels in DRG after DC crush injury, western blot and densitometry; assay type: in vivo, mice; details: for pATM (pSer 1981) levels: oral 20 mg/kg once daily, DRG at 4 weeks after DC injury; for pATM inhibition in DRGN from SCI treated animals: oral, doses up to 100 mg/kg
T2 construct: L4/L5 DRG pairs were dissected out and snap frozen in liquid nitrogen; from tissue; host or cells: mouse L4/L5 dorsal root ganglia, 4 weeks after DC crush injury
Protocol: (§1) Mice were subcutaneously injected with Buprenorphine and anaesthetized using 5% isoflurane and 1.8 l/min O2. After a partial laminectomy at T8, DC were crushed bilaterally using calibrated watchmaker's forceps as described by us previously (12). Animals were dosed immediately after injury and allowed to recover in their home cage. Drugs were given every 24 hours for the duration of each experiment.
For western blot, animals were killed at 4 weeks and tissues harvested as described below. For immunohistochemistry and behavioural analysis, animals were treated up to 6 weeks after DC injury.
Methods for tissue harvesting have been described by us previously (7, 12). Briefly, for western blot analysis: animals were killed by rising concentrations of CO2 and L4/L5 DRG pairs were dissected out and snap frozen in liquid nitrogen and stored at −80° C. until required (7). For immunohistochemistry: animals were killed in rising concentrations of CO2 and intracardially perfused with 4% paraformaldehyde (7, 12). The SCI site+5 mm either side of the lesion center was dissected out and postfixed in 4% formaldehyde for 2 hr, followed by cryoprotection in a graded series of sucrose and embedded in optimal temperature cutting medium (#12678646, ThermoFisher). Sections were cut at 15 μm-thick stored at −80° C. until required.
Total protein was extracted from DRGN cultures and fresh DRG tissues as described by us previously (7, 12). Briefly, cultures/DRG tissues were washed in PBS and total protein extracted in ice-cold lysis buffer containing 20 mM HEPES, 1 mM EDTA, 150 mM NaCl, 1% NP-40 and 1 mM DTT and supplemented with protease (#P8340) and phosphatase inhibitor cocktails (#P5726) (all from Sigma). After a protein assay using the Bradford Assay Kit (#5000001; BioRad, Watford, UK), 15 μg of total protein was separated on 12% Tris-glycine SDS-PAGE gels. Proteins were then transferred onto PVDF membranes (#1EVH00005, Merck, Gillingham, UK), blocked in non-fat milk and incubated with rabbit anti-pATM (ser1981) antibody (#13050, 1:200 dilution, Cell Signalling Technology, London, UK) overnight at 4° C. Membranes were then washed in Tris buffered saline (TBS) and incubated with appropriate mouse/rabbit HRP-labelled secondary antibody (#GENA934; 1:1000 dilution, GE Healthcare, Buckinghamshire, UK) and bands detected using an enhanced chemiluminescence kit (#RPN2108, GE Healthcare). Rabbit anti-β-actin antibody (#ZRB1312, 1:1000; Sigma) was used as a loading control for western blots.
For densitometry, western blots were scanned into Adobe Photoshop (Adobe Systems, San Jose, CA, USA) keeping all scanning parameters the same between each blot and densitometrically analysed using the built-in gel plotting macros in ImageJ (ww.nihimage.nih.gov), as previously described (7).

DC axons = assay type: in vivo, mice; details: oral 20 mg/kg once daily; for DC axon regeneration through the lesion site: 6 weeks after injury
DC injury model of SCI [2] = assay: electrophysiology, compound action potentials across the lesion site after DC injury; assay type: in vivo, mice; details: oral, 6 weeks after DC injury
Protocol: as §1, with “experiment. […] Spike 2 software (Cambridge Electronic Design, Cambridge, UK) was used to process and analyse the traces and determine the CAP amplitude and CAP area for each condition.” for “experiment.”

DC injury model of SCI [3] = assay: tape sensing and removal test (sensory function) after DC injury; assay type: in vivo, mice; details: oral; for tape sensing and removal time: over 6 weeks after DC injury, versus controls
Protocol: (§2) Mice were subcutaneously injected with Buprenorphine and anaesthetized using 5% isoflurane and 1.8 l/min O2. After a partial laminectomy at T8, DC were crushed bilaterally using calibrated watchmaker's forceps as described by us previously (12). Animals were dosed immediately after injury and allowed to recover in their home cage. Drugs were given every 24 hours for the duration of each experiment. Tape sensing and removal and horizontal ladder crossing tests were used to detect sensory and locomotor changes after DC injury and treatment as described by us previously (7). Briefly, tape sensing and removal was tested by attaching a 15/15 mm piece of sticky tape (Kip Hochkrepp, Bocholt, Germany) onto the plantar surface of each the left paw of each mouse and recording the time taken to detect and remove the tape. For the ladder crossing test, each mouse was trained prior to DC injury to master the traversing the ladder (0.9 m long and 15.5 cm wide with randomly adjusted rungs). Animals were assessed crossing the ladder and the total number of steps and the number of left and right hind paw slips were recorded and presented as an error ratio. All of these tests were performed at 2 days after injury, then at 1 week followed by weekly tests for 6 weeks. The experimenter was masked to the treatment conditions and animals were assessed in the same order and time of day with each test performed for 3 individual trials on each occasion.

DC injury model of SCI [4] = assay: horizontal ladder crossing test (locomotor function) after DC injury; assay type: in vivo, mice; details: oral; for locomotor function, ladder crossing: over 6 weeks after DC injury
Protocol: as §2

ATM [5] = molecular target: T3, ATM (Homo sapiens, UniProt Q13315); details: read-out: cell IC50; cited from earlier work
[6] = test system: kinases within the same family; details: cited from earlier work
[7] = after oral administration; cited from earlier work
brain gliomas = details: in combination with daily ionizing radiation therapy; cited from earlier work
ATM [8] = molecular target: T3, ATM; details: cited from earlier work
γH2Ax+ foci = details: twice weekly injections directly into the CSF, cited from earlier work
[9] = 5 nM, compared to vehicle-treated DRGN

T1 sequence (D4ACL8 1-3064): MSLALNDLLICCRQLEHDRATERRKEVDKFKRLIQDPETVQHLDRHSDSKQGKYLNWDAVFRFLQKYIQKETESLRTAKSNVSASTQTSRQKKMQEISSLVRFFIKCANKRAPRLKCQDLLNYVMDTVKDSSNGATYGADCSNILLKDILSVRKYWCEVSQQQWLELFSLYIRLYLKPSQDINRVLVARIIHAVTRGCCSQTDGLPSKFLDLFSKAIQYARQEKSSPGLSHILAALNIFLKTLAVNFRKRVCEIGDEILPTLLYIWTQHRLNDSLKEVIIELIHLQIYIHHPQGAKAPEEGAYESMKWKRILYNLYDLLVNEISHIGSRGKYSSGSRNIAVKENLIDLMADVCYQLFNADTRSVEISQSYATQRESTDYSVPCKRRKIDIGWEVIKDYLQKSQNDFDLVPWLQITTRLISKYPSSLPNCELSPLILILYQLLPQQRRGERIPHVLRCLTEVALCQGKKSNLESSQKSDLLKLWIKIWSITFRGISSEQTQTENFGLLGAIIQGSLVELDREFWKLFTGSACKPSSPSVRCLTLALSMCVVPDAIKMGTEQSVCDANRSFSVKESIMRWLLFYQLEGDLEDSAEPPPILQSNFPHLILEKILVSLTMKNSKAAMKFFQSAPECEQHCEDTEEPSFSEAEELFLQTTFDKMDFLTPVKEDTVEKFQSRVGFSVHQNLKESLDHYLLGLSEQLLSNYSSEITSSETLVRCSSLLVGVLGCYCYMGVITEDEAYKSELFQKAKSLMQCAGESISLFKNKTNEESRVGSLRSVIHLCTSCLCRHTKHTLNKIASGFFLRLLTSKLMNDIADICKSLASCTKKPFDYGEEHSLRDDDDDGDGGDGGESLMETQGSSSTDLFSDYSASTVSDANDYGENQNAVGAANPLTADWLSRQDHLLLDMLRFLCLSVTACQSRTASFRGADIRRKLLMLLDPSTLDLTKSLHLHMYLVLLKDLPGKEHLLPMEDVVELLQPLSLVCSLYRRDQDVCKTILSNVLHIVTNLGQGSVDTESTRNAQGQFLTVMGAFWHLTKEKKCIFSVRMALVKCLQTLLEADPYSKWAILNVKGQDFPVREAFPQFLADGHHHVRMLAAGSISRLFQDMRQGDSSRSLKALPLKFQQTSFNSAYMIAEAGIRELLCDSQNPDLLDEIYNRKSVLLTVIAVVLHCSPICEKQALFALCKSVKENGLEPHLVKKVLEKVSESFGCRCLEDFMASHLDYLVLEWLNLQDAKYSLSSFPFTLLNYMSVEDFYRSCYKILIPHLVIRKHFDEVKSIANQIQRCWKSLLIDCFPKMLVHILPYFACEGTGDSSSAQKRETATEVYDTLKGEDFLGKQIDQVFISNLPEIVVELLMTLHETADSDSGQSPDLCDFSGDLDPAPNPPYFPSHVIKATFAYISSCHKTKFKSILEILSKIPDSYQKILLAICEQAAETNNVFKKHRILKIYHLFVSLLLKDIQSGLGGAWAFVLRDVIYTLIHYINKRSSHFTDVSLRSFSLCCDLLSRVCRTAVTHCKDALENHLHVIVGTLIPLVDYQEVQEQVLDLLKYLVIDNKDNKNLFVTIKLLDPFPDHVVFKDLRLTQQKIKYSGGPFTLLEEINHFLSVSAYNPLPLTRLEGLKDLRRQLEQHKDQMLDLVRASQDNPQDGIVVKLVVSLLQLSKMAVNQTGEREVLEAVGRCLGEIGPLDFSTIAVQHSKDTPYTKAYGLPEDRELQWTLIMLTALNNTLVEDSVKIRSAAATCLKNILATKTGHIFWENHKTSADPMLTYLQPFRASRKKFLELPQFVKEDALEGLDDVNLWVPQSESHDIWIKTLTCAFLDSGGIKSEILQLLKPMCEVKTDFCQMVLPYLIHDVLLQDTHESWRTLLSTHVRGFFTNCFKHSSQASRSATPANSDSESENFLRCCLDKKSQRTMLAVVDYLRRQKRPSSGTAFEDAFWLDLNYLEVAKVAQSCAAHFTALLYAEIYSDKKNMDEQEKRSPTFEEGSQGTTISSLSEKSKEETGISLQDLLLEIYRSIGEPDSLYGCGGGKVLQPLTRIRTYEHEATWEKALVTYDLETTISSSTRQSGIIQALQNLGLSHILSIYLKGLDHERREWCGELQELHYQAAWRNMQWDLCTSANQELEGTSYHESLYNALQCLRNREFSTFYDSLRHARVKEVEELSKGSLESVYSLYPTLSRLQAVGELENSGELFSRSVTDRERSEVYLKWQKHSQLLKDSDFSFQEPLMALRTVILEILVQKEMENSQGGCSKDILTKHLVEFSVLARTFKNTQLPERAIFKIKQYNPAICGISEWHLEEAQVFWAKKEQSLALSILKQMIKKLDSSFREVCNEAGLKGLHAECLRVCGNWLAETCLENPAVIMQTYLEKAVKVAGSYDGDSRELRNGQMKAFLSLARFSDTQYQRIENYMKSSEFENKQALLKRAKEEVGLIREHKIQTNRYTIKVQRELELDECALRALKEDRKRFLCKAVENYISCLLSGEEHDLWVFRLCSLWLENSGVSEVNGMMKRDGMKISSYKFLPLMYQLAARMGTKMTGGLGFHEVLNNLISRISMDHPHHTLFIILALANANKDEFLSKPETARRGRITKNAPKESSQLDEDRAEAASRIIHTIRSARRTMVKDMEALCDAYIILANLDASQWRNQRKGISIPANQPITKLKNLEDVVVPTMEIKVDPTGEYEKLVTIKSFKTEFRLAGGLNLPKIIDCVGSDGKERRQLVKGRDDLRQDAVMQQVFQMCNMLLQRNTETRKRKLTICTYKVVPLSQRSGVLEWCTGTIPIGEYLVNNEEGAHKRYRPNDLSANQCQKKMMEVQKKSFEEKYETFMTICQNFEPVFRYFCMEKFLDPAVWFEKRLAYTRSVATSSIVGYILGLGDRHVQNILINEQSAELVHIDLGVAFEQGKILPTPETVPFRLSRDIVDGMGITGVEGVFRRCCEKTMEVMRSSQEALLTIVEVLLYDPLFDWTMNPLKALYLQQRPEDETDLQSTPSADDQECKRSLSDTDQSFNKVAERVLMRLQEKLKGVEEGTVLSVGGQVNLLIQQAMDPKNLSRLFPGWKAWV

## CC(C)n1c(=O)n(C)c2cnc3ccc(-c4ccc(OCCCN5CCCCC5)nc4F)cc3c21 [AZD1390, 8-[2-Fluoro-6-[3-(I-piperidyl)propoxy]-3-pyridyl]-1-isopropyl-3-methyl-imidazo[4,5-c]quinolin-2-one]
[1]; 5 nM, compared to vehicle-treated (0 nM) cultures
  reduction of pATM levels: 70%
[1]; concentrations 1-10 nM tested
  lowest most effective dose for reduction of pATM levels: 5 nM
Primary adult rat DRGN; [9]
  increase of DRGN survival: 60%
  increase of longest neurite length: 81%
  increase of percentage of DRGN with neurites: 88%
pATM (pSer 1981)
  pATM (pSer 1981) levels: significant suppression
DC axons
  DC axon regeneration through the lesion site: promoted DC axon regeneration through the lesion site and into the rostral cord
DC axons; up to 1 mm beyond the lesion site, compared to vehicle-treated mice
  axons regenerating beyond the lesion site: up to 12%
DC injury model of SCI [2]
  CAP amplitudes: significantly improved
  CAP areas: significantly improved
  CAP trace: return of a significant CAP trace
DC injury model of SCI [3]; after injury
  time for sensory function to return to baseline of sham-uninjured animals: ≤ 4 weeks
DC injury model of SCI [3]
  tape sensing and removal time: significantly shorter time than controls
DC injury model of SCI [4]
  time to recover to sham-uninjured control levels, ladder crossing: ≤ 4 weeks
  locomotor function, ladder crossing: marked improvement
ATM [5]
  IC50: 0.78 nM
[6]
  selectivity over kinases within the same family: > 10,000 fold
[7]
  time bioavailable in the brain: at least 8 hours
Brain gliomas
  tumor response and survival: induced tumor regression and prolonged survival
ATM [8]
  IC50: 0.5 to 3 nM

## C[C@@H]1CN(CC(=O)Nc2ccc3c(c2)Cc2cccc(-c4cc(=O)cc(N5CCOCC5)o4)c2S3)C[C@H](C)O1 [KU-60019]
[1]
  ATM activation in vitro: able to suppress ATM activation in vitro
pATM (pSer 1981); intrathecal delivery after injury
  suppression of pATM levels: 81%
pATM (pSer 1981)
  pATM (pSer 1981) levels: no effect
  pATM inhibition in DRGN from SCI treated animals: no pATM inhibition
pATM (pSer 1981); listed as KU6000-19
  pATM inhibition in DRGN from SCI treated animals: no effect
DC axons
  DC axon regeneration through the lesion site: not oral KU-60019 promoted DC axon regeneration
DC injury model of SCI [3]
  tape sensing and removal time: no effect
DC injury model of SCI [4]
  locomotor function, ladder crossing: a significant deficit remained
γH2Ax+ foci; after SCI
  γH2Ax+ foci: reduced
γH2Ax+ foci
  functional recovery after SCI: promoted significant functional recovery

## FGF-2: fibroblast growth factor-2, positive control (Peprotech), 10 ng/ml
Primary adult rat DRGN; FGF-2 10 ng/ml positive control, KU-60019 at concentrations of a recent study
  DRGN survival and neurite outgrowth in comparison with AZD1390: inferior compared to AZD1390
